Data as given in EP0314302A2, “Herbicidal o-carbomethoxy-sulfonylureas” (E.I. DU PONT DE NEMOURS AND COMPANY, priority 1987, dated 1989).

Columns and labels:
Itchgrass = assay: Test 5 sugarcane injury and weed control, postemergence; format: in vivo, Rottboellia exaltata; conditions: scale 0-100
Method: (§1) Sugarcane (Saccharum spp.) cuttings which had been pre-sprouted were planted in 15-cm plastic pots. Narrowleaf panicum (Panicum maximum), large crabgrass (Digitaria sanguinalis), guineagrass (P. maximum) and itchgrass (Rottboellia exaltata) were seeded in individual 15-cm plastic pots.
(§2) The pots were treated postemergence when the plants had 3 to 4 leaves with 2 to 3 tillers with Compound I formulated in a non-phytotoxic carrier made up of acetone-humectant-water-surfactant (22:1:1:0.05 v/v). The degree of crop injury and weed control was visually rated 27 days after treatment (DAT). Plant injury ratings are based on the scale of 0 to 100 where 0 = no effect, 20 = minimal injury and 100 = complete control.

Lalang = assay: Test 9 postemergence; format: in vivo; conditions: scale 0-100
Narrowleaf panicum = assay: Test 11 windowsill flats, postemergence; format: in vivo, Panicum maximum; conditions: Postemergence 32 g/ha, 0.25% X-77 surfactant, scale 0-100
Method: (§3) Budded citrus seedlings were planted in 30-liter plastic pots which were also seeded with sandbur, guineagrass, narrowleaf panicum, common ragweed, yellow nutsedge, purple nutsedge and bindweed. Compound I was applied preemergence and postemergence to the weeds. Treatments were sprayed to simulate the trunk-to-trunk herbicide application method used in some citrus groves. The compound was also applied postemergence to weeds grown in windowsill flats. The flats were filled with planting medium and seeded with morningglory (Ipomoea spp.). purple nutsedge (Cyperus rotundus), pigweed (Amaranthus spp.), bindweed (Convolvulus spp.), narrowleaf panicum (Panicum maximum), common ragweed (Ambrosia artemisiifolia), sandbur (Cenchrus echinatus), itchgrass (Rottboellia exaltata), johnsongrass (Sorghum halepense), guineagrass (Panicum maximum), smooth crabgrass (Digitaria ischaemum), broadleaf signalgrass (Brachiaria platyphylla), bermudagrass (Cynodon dactylon), goosegrass (Eleusine indica), large crabgrass (Digitaria sanguinalis) and yellow nutsedge (Cyperus esculentus).
(§4) The compound was formulated and sprayed with 0.25% X-77 surfactant in water. Plants were visually rated 21 and 29 days after treatment and compared with appropriate controls. Injury ratings were based on the scale of 0 to 100, where 0 indicates no effect, 20 indicates minimum effect and 100 indicates complete control. […]

Guineagrass = assay: Test 11 windowsill flats, postemergence; format: in vivo, Panicum maximum; conditions: Postemergence 32 g/ha, 0.25% X-77 surfactant, scale 0-100
Method: as §3, §4

Buckhorn plantain = assay: Test 7 postemergence; format: in vivo, Plantago lanceolata; conditions: scale 0-100
Method: (§5) Individual 11.4-cm plastic pots filled with planting medium were seeded with rape, wild radish (Raphanus raphanistruna). tansy mustard (Descurainia pinnata), ball mustard (Neslia paniculata), black mustard (Brassica nigra), yellow mustard, brown mustard, lentils, safflower, flax, sunflower, peanut, vetch, alfalfa, field bean, pea, violet (Viola spp), Kochia (Kochia spp), Russian thistle (Salsola spp), Matricaria spp, groundsel (Senecio spp), shepherdspurse (Capsella bursa-pastoris), nightshade (Solanum spp), sowthistle (Sonchus spp), sugar beet, wheat, "Bonanza" barley and "Morex" barley, Kentucky bluegrass (Poa pratensis), red clover (Trifolium pratense), dandelion (Taraxacum spp) and buckhorn plantain (Plantago lanceolata).
(§6) Plants were treated postemergence with the compound formulated with a non-phytotoxic carrier. Plants were visually rated 18 days after treatment (DAT). Response ratings were based on the scale of 0 to 100 where 0 = no effect, 20 = minimal injury and 100 = complete control.

coffee = assay: Test 6 effect of surfactants, postemergence; format: in vivo, Coffea spp; conditions: addition of a surfactant
Text: The object of this test was to evaluate the effect of surfactants and plant growth stage on the efficacy of the compound of this invention. Plastic windowsill pots were filled with planting medium and seeded with yellow nutsedge (Cyperus esculentus), large crabgrass (Digitaria sanguinalis), goosegrass (Elsusine indica), bermudagrass (Cynodon dactylon), broadleaf signalgrass (Brachiara platyphalla), smooth crabgrass (Digitaria ischaemum), guinea grass (Panicum maximum) and johnsongrass (Sorghum halapense). Coffee (Coffea spp) plants with 2 to 4 branches were included in one test.
Plants were treated postemergence with Compound I formulated with different surfactants or a non-phytotoxic carrier made up of acetone-humectant-water-surfactant.

Matricaria = assay: Test 7 postemergence; format: in vivo, Matricaria spp; conditions: scale 0-100
Method: as §5, §6

Wild radish = assay: Test 7 postemergence; format: in vivo, Raphanus raphanistruna; conditions: scale 0-100
Method: as §5, §6

Large Crabgrass = assay: Test 5 sugarcane injury and weed control, postemergence; format: in vivo, Digitaria sanguinalis; conditions: scale 0-100
Method: as §1, §2

Agropyron repens = assay: Test 2 perennial weeds from rhizomes; format: in vivo; conditions: 0.5% v/v non-ionic surfactant, scale 0-100
Method: (§7) Rhizomes of Agropyron repens and Cirsium arvense were planted in 17.5-cm plastic pots and grown in the greenhouse for 5 months prior to herbicide application. Plants were 24 to 35 cm tall and releasing lateral buds at the time of treatment. Compound I was diluted in water containing 0.5% v/v non-ionic surfactant and applied to the plants. The degree of weed control was visually rated 36 days after application of the herbicide. Control ratings were based upon comparison to an untreated control using a scale of 0 to 100 where 0 indicated no effect and […] represented death of all foliar portions with no regrowth apparent.

Cirsium arvense = assay: Test 2 perennial weeds from rhizomes; format: in vivo; conditions: 0.5% v/v non-ionic surfactant, scale 0-100
Method: as §7

Yellow nutsedge = assay: Test 11 citrus pots, postemergence to the weeds; format: in vivo, Cyperus esculentus; conditions: Postemergence 32 g/ha, 0.25% X-77 surfactant, scale 0-100
Method: as §3, §4

Purple nutsedge = assay: Test 11 citrus pots, postemergence to the weeds; format: in vivo, Cyperus rotundus; conditions: Postemergence 32 g/ha, 0.25% X-77 surfactant, scale 0-100
Method: as §3, §4

Groundsel = assay: Test 7 postemergence; format: in vivo, Senecio spp; conditions: scale 0-100
Method: as §5, §6

Guinea Grass = assay: Test 3 postemergence weed control; format: in vivo, Panicum maximum; conditions: 32 g/ha, scale 0-100
Method: Seeds of crabgrass (Digitaria spp), guinea grass (Panicum maximum) and narrowleaf panicum (P. maximum) were planted in 15-cm plastic pots. The weeds were treated postemergence with compound I, formulated in a non-phytotoxic solvent, when the plants had 3 or more leaves and had tillered. The degree of weed control was visually rated 17 days after compound application (DAT). Control ratings were based on a scale of 0 to 100 where 0 = no effect, 20 = minimal control and 100 = complete control.

COC(=O)c1cccnc1S(=O)(=O)NC(=O)Nc1nc(OC)cc(OC)n1 [Compound I, 2-[[(4,6-dimethoxypyrimidin-2-yl)aminocarbonyl]aminosulfonyl]-3-pyridinecarboxylic acid, methyl ester]
Plant Injury Rating 27 DAT (Itchgrass; 8 g/ha): 80 | Plant Injury Rating 27 DAT (Itchgrass; 16 g/ha): 80 | Plant Injury Rating 27 DAT (Itchgrass; 32 g/ha): 100 | Plant Injury Rating 27 DAT (Itchgrass; 64 g/ha): 100 | Plant Injury Rating 22 DAT (Lalang; 8 g/ha): 0 | Plant Injury Rating 22 DAT (Lalang; 16 g/ha): 0 | Plant Injury Rating 22 DAT (Lalang; 32 g/ha): 20 | Injury ratings (Narrowleaf panicum): 90 | Injury ratings (Guineagrass): 100 | Plant Injury Rating 18 DAT (Buckhorn plantain; 16 g/ha): 30 | Plant Injury Rating 18 DAT (Buckhorn plantain; 32 g/ha): 50 | safety to coffee (coffee): maintaining safety to coffee | Plant Injury Rating 18 DAT (Matricaria; 16 g/ha): 100 | Plant Injury Rating 18 DAT (Matricaria; 32 g/ha): 100 | Plant Injury Rating 18 DAT (Wild radish; 16 g/ha): 100 | Plant Injury Rating 18 DAT (Wild radish; 32 g/ha): 100 | Plant Injury Rating 27 DAT (Large Crabgrass; 8 g/ha): 30 | Plant Injury Rating 27 DAT (Large Crabgrass; 16 g/ha): 60 | Plant Injury Rating 27 DAT (Large Crabgrass; 32 g/ha): 80 | Plant Injury Rating 27 DAT (Large Crabgrass; 64 g/ha): 100 | Control ratings 36 DAT (Agropyron repens; 16 g/ha): 85 | Control ratings 36 DAT (Agropyron repens; 32 g/ha): 90 | Control ratings 36 DAT (Agropyron repens; 64 g/ha): 95 | Control ratings 36 DAT (Cirsium arvense; 16 g/ha): 40 | Control ratings 36 DAT (Cirsium arvense; 32 g/ha): 50 | Control ratings 36 DAT (Cirsium arvense; 64 g/ha): 50 | Injury ratings (Yellow nutsedge): 100 | Injury ratings (Purple nutsedge): 90 | Plant Injury Rating 18 DAT (Groundsel; 16 g/ha): 100 | Plant Injury Rating 18 DAT (Groundsel; 32 g/ha): 100 | Control Rating 17 DAT (Guinea Grass): 70
